For 21 compounds, IC50 and Ratio IC50 results are on record in ChEMBL document CHEMBL1156203, “Synthesis and evaluation of alkenyl indazoles as selective Aurora kinase inhibitors” (Bioorg Med Chem Lett, 2010).

The target in one test is T1, Aurora kinase A (Homo sapiens, UniProt O14965).
T1 sequence (O14965 whole entry): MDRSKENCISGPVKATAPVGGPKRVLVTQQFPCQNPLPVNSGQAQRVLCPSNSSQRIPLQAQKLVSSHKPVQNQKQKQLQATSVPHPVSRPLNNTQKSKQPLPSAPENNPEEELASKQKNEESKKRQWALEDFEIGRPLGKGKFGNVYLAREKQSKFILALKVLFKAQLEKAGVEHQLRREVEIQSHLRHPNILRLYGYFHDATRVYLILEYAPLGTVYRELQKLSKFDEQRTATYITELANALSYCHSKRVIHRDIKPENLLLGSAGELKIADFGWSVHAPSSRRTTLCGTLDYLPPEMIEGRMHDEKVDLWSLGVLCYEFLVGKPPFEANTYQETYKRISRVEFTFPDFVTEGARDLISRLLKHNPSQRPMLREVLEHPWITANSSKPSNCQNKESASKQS
Kind of test: Inhibition of hexahistidine tagged recombinant Aurora A expressed in Hi-5 cells assessed as ATP remaining after 2 hrs by bioluminescence.

Test [1] in a line: Selectivity ratio of IC50 for recombinant Aurora A to IC50 for recombinant Aurora B.
In the next test the target is Aurora kinase B (Homo sapiens, UniProt Q96GD4). Kind of test: Inhibition of GST tagged recombinant Aurora B expressed in Hi-5 cells after 1 hr by TRF assay.
Chain of Aurora kinase B (Q96GD4 whole entry): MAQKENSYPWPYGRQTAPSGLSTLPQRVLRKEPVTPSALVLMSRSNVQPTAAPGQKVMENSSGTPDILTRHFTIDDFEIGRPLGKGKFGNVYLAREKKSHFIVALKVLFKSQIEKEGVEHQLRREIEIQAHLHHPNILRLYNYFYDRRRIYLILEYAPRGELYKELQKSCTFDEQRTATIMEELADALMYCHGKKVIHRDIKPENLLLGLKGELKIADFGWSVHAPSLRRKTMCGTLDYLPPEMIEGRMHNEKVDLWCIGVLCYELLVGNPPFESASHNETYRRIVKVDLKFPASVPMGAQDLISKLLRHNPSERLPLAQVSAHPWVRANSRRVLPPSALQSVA

SMILES strings stand for the structures.

What is called IC50 is the concentration at which inhibition is half-maximal. With `O=S(=O)(Cc1ccccc1)Nc1ccc2[nH]nc(/C=C/c3ccccc3)c2c1`, the IC50 on Aurora kinase A worked out at 35 nM; on Aurora kinase B it was 31 nM. Besides, in test [1], the Ratio IC50 is 1.1.
As for `Cc1cc2[nH]nc(C#Cc3ccccc3)c2cc1NC(=O)Cc1cccs1`, the IC50 at Aurora kinase A turned out to be 240 nM; at Aurora kinase B, 110 nM.
In the same order, the values of `Cc1cc2[nH]nc(/C=C/c3ccccc3)c2cc1NC(=O)Cc1cccs1` are 17 nM and 47 nM.
As to `Cc1c(NC(=O)Cc2cccs2)ccc2[nH]nc(/C=C/c3cccc(CN4CCN(C)CC4)c3)c12`, the figures for the half-inhibitory concentration (IC50) at Aurora kinase A and at Aurora kinase B were 1900 nM and 99 nM, respectively. Moreover, the Ratio IC50 in test [1] was found to be 19.
For `Nc1cc2c(/C=C/c3ccccc3)n[nH]c2cc1N1CCCC1`, the IC50 at Aurora kinase A is 200 nM; at Aurora kinase B, 81 nM. In addition, the Ratio IC50 in test [1] was determined as 2.5.
Take `Cc1cc2[nH]nc(/C=C/c3ccccc3)c2cc1NC(=O)Cc1ccccc1`: the IC50 on Aurora kinase A came to 19 nM.
For the compound `CN1CCN(Cc2cccc(/C=C/c3n[nH]c4ccc(NC(=O)Cc5cccs5)cc34)c2)CC1`, the concentration for half-maximal inhibition (IC50) on Aurora kinase A worked out at 35 nM; on Aurora kinase B, 26 nM. The Ratio IC50 in test [1] came out at 1.3.
Consider `O=C(Cc1ccccc1)Nc1ccc2[nH]nc(CCc3ccccc3)c2c1`, for which, at Aurora kinase A, the IC50 came out at 1700 nM.
Regarding `CN1CCN(C(=O)Nc2cccc(/C=C/c3n[nH]c4cc(N5CCCC5)c(NS(C)(=O)=O)cc34)c2)CC1`, the results for the IC50 on Aurora kinase A and on Aurora kinase B were 140 nM and 62 nM, respectively. For the same compound, the Ratio IC50 in test [1] was found to be 2.3.
In the case of `O=[N+]([O-])c1cc2c(/C=C/c3ccccc3)n[nH]c2cc1N1CCCC1`, the concentration for half-maximal inhibition (IC50) on Aurora kinase A turned out to be 240 nM; on Aurora kinase B, 110 nM. In addition, the Ratio IC50 in test [1] stood at 2.2.
Turning to `C(=C\c1n[nH]c2cc(N3CCCC3)c(-c3ccncc3)cc12)/c1ccccc1`, the concentration for half-maximal inhibition (IC50) was found to be 160 nM at Aurora kinase A and 46 nM at Aurora kinase B. The Ratio IC50 in test [1] was 3.5.
Take `COc1ccc(OC)c(CC(=O)Nc2cc3c(/C=C/c4ccccc4)n[nH]c3cc2C)c1`: the half-inhibitory concentration (IC50) at Aurora kinase A came to 42 nM; at Aurora kinase B, 180 nM. In addition, in test [1], the Ratio IC50 came to 0.23.
In the case of `Cc1c(C#N)ccc2[nH]nc(/C=C/c3cccc(CN4CCN(C)CC4)c3)c12`, the IC50 turned out to be 280 nM at Aurora kinase A and 59 nM on Aurora kinase B. The Ratio IC50 in test [1] is 4.7.
On to `CN1CCN(c2cc3[nH]nc(/C=C/c4ccccc4)c3cc2NCc2ccccn2)CC1`, for which the IC50 was over 10000 nM at Aurora kinase A and 810 nM at Aurora kinase B. The Ratio IC50 in test [1] is over 12.
As to `C(=C\c1n[nH]c2cc(N3CCCC3)c(NCc3ccccn3)cc12)/c1ccccc1`, the IC50 at Aurora kinase A turned out to be 620 nM; at Aurora kinase B, 130 nM. Moreover, the Ratio IC50 in test [1] is 5.
As for `Cc1cc2[nH]nc(/C=C/c3cccc(CN4CCN(C)CC4)c3)c2cc1NC(=O)Cc1cccs1`, the half-inhibitory concentration (IC50) on Aurora kinase A turned out to be 79 nM; at Aurora kinase B, 130 nM. For the same compound, the Ratio IC50 in test [1] came out at 0.6.
Regarding `Cc1cc(N)cc(-c2ccc3[nH]nc(/C=C/c4cccc(CN5CCN(C)CC5)c4)c3c2C)c1`, the values for the IC50 at Aurora kinase A and at Aurora kinase B were 350 nM and 31 nM, respectively. In addition, the Ratio IC50 in test [1] is 11.3.
For `O=C(Cc1ccccc1)Nc1ccc2[nH]nc(C3CC3c3ccccc3)c2c1` (centres undefined), the IC50 at Aurora kinase A came out at 640 nM; on Aurora kinase B, 1640 nM.
`O=C(Cc1ccccc1)Nc1ccc2[nH]nc(/C=C/c3ccccc3)c2c1`: the concentration for half-maximal inhibition (IC50) on Aurora kinase A was 22 nM.
As for `O=C(Cc1cccs1)Nc1cc2c(/C=C/c3ccccc3)n[nH]c2cc1N1CCCC1`, the IC50 on Aurora kinase A was found to be 91 nM; on Aurora kinase B it was 110 nM. Besides, the Ratio IC50 in test [1] was 0.8.
In the case of `Cc1cc2[nH]nc(/C=C/c3cccc(NC(=O)N4CCN(C)CC4)c3)c2cc1NC(=O)Cc1cccs1`, the IC50 came to 13 nM at Aurora kinase A and 46 nM on Aurora kinase B. Moreover, the Ratio IC50 in test [1] stood at 0.28.
